Laboratory results taken from patent US20170306047A1, “PHARMACEUTICAL COMPOSITION FOR CANCER PREVENTION AND TREATMENT, CONTAINING NDRG3 EXPRESSION OR ACTIVITY INHIBITOR AS ACTIVE INGREDIENT, OR NDRG3 PROTEIN-SPECIFIC ANTIBODY AND USE THEREOF” (KOREA RESEARCH INSTITUTE OF BIOSCIENCE AND BIOTECHNOLOGY, priority 2014, published 2017).
Where a SMILES comes first, the peptide text is derived from it. The star is where a group is joined. Cbz = O=C(OCc1ccccc1)*

Experiments:
[1] = system: NDRG3 protein in MCF-7 cells; assay: NDRG3 protein expression after inhibition of glycolysis, MCF-7 cells; assay type: cell-based; conditions: varying concentration, 24 hours, hypoxic condition (1% O2)
Description: Additionally, to check an effect of inhibition of glycolysis on expression of the NDRG3 protein, MCF-7 cells were treated with a varying concentration of 2-deoxyglucose (2-DG) inhibiting the glycolysis, statically cultured for 24 hours under a hypoxic condition (1% O2), as described in Example 5-2, and then collected and lysed, as described in Example 3. Thereafter, the MCF-7 cells were subjected to Western blotting using anti-NDRG3 and anti-β-actin antibodies (FIG. 15D).

[2] = system: NDRG3 protein in MCF-7 cells; assay: NDRG3 protein expression after PHD2 inhibition, Western blotting, MCF-7 cells; assay type: cell-based; conditions: varying concentration, 24 hours, normoxic condition (21% O2)
Description: (§1) Also, to determine the functional relationship between PHD2 and NDRG3, MCF-7 cells (FIG. 4B) or HeLa cells (FIG. 4C) were treated with a varying concentration of desferrioxamine (DFX), which was a PHD2 inhibitor, for 24 hours under a normoxic condition (21% O2), and then lysed, as described in Example 3. The cell lysate was subjected to Western blotting using anti-NDRG3, anti-HIF-1α, and anti-β-actin (FIGS. 4B and 4C).

[3] = system: NDRG3 protein in HeLa cells; assay: NDRG3 protein expression after PHD2 inhibition, Western blotting, HeLa cells; assay type: cell-based; conditions: varying concentration, 24 hours, normoxic condition (21% O2)
Description: as §1

[4] = system: NDRG3 protein in NDRG3-overexpressing HeLa cells; assay: In vivo ubiquitination assay of NDRG3 under proteasome inhibition; assay type: cell-based; conditions: 20 μM for 8 hours, normoxic condition
Description: Specifically, a vector for transfection (an MSCV retroviral system) was constructed using a full-length NDRG3 cDNA (SEQ ID NO: 1) and a pMSCVneo retroviral vector (Clontech). To construct the viral vector, a GP293 cell line was transfected using lipofectamine (Invitrogen). After 48 hours, HeLa cells were treated with a cell supernatant containing NDRG3-retroviruses or control-retroviruses together with 6 μg/ml of polybrene for 24 hours. Then, the cells in which the NDRG3 was overexpressed were untreated or treated with 20 μM MG132 for 8 hours, and then collected. The collected cells were subjected to Western blotting using an anti-NDRG3 antibody and an anti-β-actin antibody (FIG. 7A).
Also, to determine ubiquitination of NDRG3 under a normoxic condition, an in vivo ubiquitination assay was performed. First, a vector for transfection was constructed using shNDRG3 (Sigma-Aldrich, SEQ ID NO: 4) and a lentiviral vector to inhibit expression of the NDRG3. To construct the viral vector, a packing cell line was transfected as described above. Thereafter, HeLa cells were treated with a cell supernatant containing the NDRG3 shRNA-expressing lentiviruses together with 6 μg/ml of polybrene, and kept in a DMEM medium supplemented with 10% FBS. […]

[5] = target: T1, recombinant human NDRG3-GST (Homo sapiens, UniProt Q9UGV2); assay: In vitro ubiquitination assay of recombinant NDRG3 by PHD2/VHL complex; assay type: biochemical; conditions: L-lactate pH 7.0, 20 mM
T1 construct: made in house; host or cells: E. coli BL21 (NDRG3-GST); HEK293T immunoprecipitates (PHD2, VHL)
T1 sequence (Q9UGV2 whole entry): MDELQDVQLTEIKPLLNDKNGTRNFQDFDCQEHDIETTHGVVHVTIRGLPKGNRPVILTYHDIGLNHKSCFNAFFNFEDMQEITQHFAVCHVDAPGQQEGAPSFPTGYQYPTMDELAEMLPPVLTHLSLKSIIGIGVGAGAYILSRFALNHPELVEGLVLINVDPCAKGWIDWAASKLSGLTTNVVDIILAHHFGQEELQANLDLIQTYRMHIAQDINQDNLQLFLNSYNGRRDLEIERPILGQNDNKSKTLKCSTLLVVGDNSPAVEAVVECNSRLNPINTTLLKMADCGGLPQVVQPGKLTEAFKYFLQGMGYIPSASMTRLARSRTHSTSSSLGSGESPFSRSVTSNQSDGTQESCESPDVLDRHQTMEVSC
Description: Further, to check an effect of lactate generation on ubiquitination of the NDRG3, an in vitro ubiquitination assay was performed. First, HEK293T cells were transfected with the Flag-tagged PHD2 and HA-tagged VHL variants, as described in Example 3, collected, and then lysed. Thereafter, the protein lysate (500 μg) was reacted with an anti-HA affinity gel (Sigma) or an anti-Flag affinity gel (Sigma) at 4° C. for a day, and centrifuged to obtain recombinant PHD2 proteins or VHL proteins. Then, the recombinant PHD2-/VHL-binding proteins were untreated or treated with L-lactate (pH 7.0, 20 mM), and then reacted at 37° C. for an hour in 50 μl of a solution including recombinant human NDRG3-GST (4 μg) prepared by the method described in Example 4-1, 500 ng of a ubiquitin-activating enzyme (E1, Upstate), 1 μg of a ubiquitin-conjugating enzyme (E2 (UbcH5a), Upstate), 2.5 μg of ubiquitin-Flag (Sigma), 20 mM HEPES (pH 7.3), 5 mM MgCl2, 1 mM DTT, and 2 mM ATP. Subsequently, the mixture was incubated with a GST-conjugated agarose resin at 4° C. for 4 hours, and the precipitate was washed, and subjected to Western blotting using an anti-Flag antibody, as described in Example 3 (FIG. 15F).

[6] = target: T2, recombinant GST-NDRG3 protein (Homo sapiens, UniProt Q9UGV2); assay: In vitro binding assay with L-[14C]-lactate, wild-type NDRG3; conditions: 50 μg GST-NDRG3 versus GST, 30° C., one hour
T2 construct: made in house; host or cells: E. coli BL21
T2 sequence (Q9UGV2 whole entry): as above
Description: Also, to confirm interaction between L-lactate and the NDRG3 protein, an in vitro binding assay was performed. GST or the recombinant GST-NDRG3 protein (50 μg) was reacted with 0.5 μCi of unlabeled L-lactate (pH 7.0, Sigma) and L-[^14C]-lactate (PerkinElmer) at 30° C. for an hour. Thereafter, a GST-conjugated agarose resin was added thereto, and the resulting mixture was reacted for 4 hours. Then, a resin to which the NDRG3-GST protein was bound was separated from the reaction mixture, and impurities were removed using PBS. Subsequently, the NDRG3-bound agarose resin was transferred to a scintillation solution containing 2 ml of an LSC-cocktail (PerkinElmer), and ^14C values were measured, and plotted in a graph (Left panel of FIG. 16B). Also, GST, the recombinant GST-NDRG3 protein (50 μg) or the recombinant GST-NDRG3 (G138W) variant protein (50 μg) was reacted with 0.5 μCi of L-[^14C]-lactate (PerkinElmer) at 30° C. for an hour, and ^14C values were then measured in the same manner as described above, and plotted in a graph (Right panel of FIG. 16B).

[7] = target: T3, recombinant GST-NDRG3 (G138W) variant protein (Homo sapiens, UniProt Q9UGV2, G138W); assay: In vitro binding assay with L-[14C]-lactate, NDRG3 (G138W) variant; conditions: 50 μg GST-NDRG3 (G138W) versus GST-NDRG3
T3 construct: made in house; host or cells: E. coli BL21
T3 sequence (Q9UGV2 whole entry G138W): as the sequence (Q9UGV2 whole entry) above, with G138W counted along it
Description: Specifically, to confirm interaction between L-lactate and the NDRG3 protein, a site-directed mutation was performed, as described in Example 4-3, using the pGEX-4T-2-NDRG3, which was cloned by the method disclosed in Example 4-1, as a template, and primers listed in the following Table 4, thereby obtaining a pGEX-4T-2-NDRG3 (G138W) variant construct in which glycine (G) that was an amino acid at position 138 among the L-lactate binding sites of the NDRG3 was substituted with […]. […]
Also, to confirm interaction between L-lactate and the NDRG3 protein, an in vitro binding assay was performed. […] Subsequently, the NDRG3-bound agarose resin was transferred to a scintillation solution containing 2 ml of an LSC-cocktail (PerkinElmer), and ^14C values were measured, and plotted in a graph (Left panel of FIG. 16B). Also, GST, the recombinant GST-NDRG3 protein (50 μg) or the recombinant GST-NDRG3 (G138W) variant protein (50 μg) was reacted with 0.5 μCi of L-[^14C]-lactate (PerkinElmer) at 30° C. for an hour, and ^14C values were then measured in the same manner as described above, and plotted in a graph (Right panel of FIG. 16B).

[8] = system: NDRG3 protein in MCF-7 cells; assay: NDRG3 protein accumulation after inhibition of L-lactate generation, MCF-7 cells; assay type: cell-based; conditions: varying concentration, 24 hours, hypoxic condition (1% O2)
Description: Also, to check an effect of inhibition of the L-lactate generation on expression of the NDRG3 protein, MCF-7 cells were treated with a varying concentration of sodium oxamate that was a lactate dehydrogenase A (LDHA) inhibitor, statically cultured for 24 hours under a hypoxic condition (1% O2), as described in Example 5-2, and then collected and lysed, as described in Example 3. Thereafter, the cell lysate was subjected to Western blotting using anti-NDRG3, anti-HIF-1α and anti-β-actin antibodies, as described above, and L-lactate generation was determined, and then plotted in a graph. The values were normalized to the L-lactate standard curve (FIG. 15B).

Huh-1 cells = assay: MTT assay of cell growth, Huh-1 cells; assay type: cell-based; conditions: varying concentration, light hypoxic condition (3% O2)
Description: (§2) Specifically, to check the cell growth in response to the NDRG3 deletion, an MTT assay was performed. First, the NDRG3-deleted Huh-1 cells prepared by the method disclosed in Example 6-1, and the control Huh-1 cells was seeded at a density of 2,000 cells/well in a 96-well plate, and then cultured at 37° C. in a 5% CO2 incubator under a hypoxic condition (3% O2) over time. Thereafter, the cells were treated with a 1 mg/ml MTT solution diluted with PBS, and reacted for 2 hours. Then, a medium containing the MTT was removed, and the cells were treated with 100 μl of DMSO to dissolve MTT formazan crystals. Subsequently, an optical density of the cell suspension was measured at a wavelength of 570 nm using a spectrophotometer (FIG. 14A).
(§3) Specifically, to check an effect of the ectopic NDRG3 (N66D) variant on the cell growth after inhibition of the lactate generation, Huh-1 cells were transfected with an ectopic variant NDRG3 (N66D) expression vector, as described in Example 4-3. Then, the Huh-1 cells and the NDRG3 (N66D) variant-overexpressing Huh-1 cells were seeded at a density of 1,000 cells/well in a 96-well plate, treated with a varying concentration of sodium oxamate, statically cultured by time under a light hypoxic condition (3% O2). Thereafter, to check the cell growth, an MTT assay was performed, as described in Example 6-3, and plotted in a graph (FIG. 17A).

[9] = system: NDRG3 (N66D) variant-overexpressing Huh-1 cells; assay: MTT assay of cell growth, NDRG3 (N66D) variant-overexpressing Huh-1 cells; assay type: cell-based; conditions: ectopic NDRG3 (N66D) variant overexpressed, light hypoxic condition (3% O2)
Description: as §2, §3

[10] = system: NDRG3 protein in Huh-1 cells; assay: NDRG3 accumulation after inhibition of lactate generation, Western blotting, Huh-1 cells; assay type: cell-based; conditions: 40 mM, light hypoxic condition
Description: (§4) Also, to check an effect of the inhibition of the lactate generation on expression of the ectopic variant NDRG3 (N66D) protein under a sustained hypoxic condition, Huh-1 cells and the NDRG3 (N66D) variant-overexpressing Huh-1 cells were untreated or treated with 40 mM sodium oxamate, statically cultured by time under a light hypoxic condition, and then collected and lysed, as described in Example 3. Thereafter, the cell lysate was subjected to Western blotting using anti-NDRG3 and anti-β-actin antibodies (FIG. 17E).

[11] = system: NDRG3 (N66D) variant in Huh-1 cells; assay: NDRG3 variant accumulation after inhibition of lactate generation, NDRG3 (N66D)-overexpressing Huh-1 cells; assay type: cell-based; conditions: ectopic NDRG3 (N66D) variant overexpressed, 40 mM, light hypoxic condition
Description: as §4

[12] = system: human umbilical vein endothelial cells (HUVEC); assay: Tube forming assay, culture broth of Huh-1 cells; assay type: cell-based; conditions: control Huh-1 cells, 24 hours, hypoxic condition (1% O2)
Description: (§5) Specifically, a tube forming assay was performed to check a change in angiogenesis activity by the NDRG3 deletion. First, the Huh-7 cells (2×10^5 cells/ml) in which the expression of the NDRG3 was inhibited using shNDRG3 according to the method described in Example 4-4, and the control Huh-7 cells were cultured for 24 hours under a hypoxic condition (1% O2), and a culture broth (1 ml) was recovered, and then cultured with human umbilical vein endothelial cells (HUVEC; 1×10^5 cells/ml) for 6 to 12 hours in a 6-well dish previously coated with Matrigel to observe formation of tubes (FIG. 13A).
(§6) Specifically, Huh-1 cells in which the NDRG3 (N66D) variant was overexpressed were prepared, and the control cells and the NDRG3 (N66D) variant-overexpressing Huh-1 cells were untreated or treated with sodium oxamate, statically cultured for 24 hours under a hypoxic condition (1% O2). Thereafter, the cells were collected, as described in Example 6-2, and then subjected to a tube forming assay (FIG. 18).

[13] = system: human umbilical vein endothelial cells (HUVEC); assay: Tube forming assay, culture broth of NDRG3 (N66D) variant-overexpressing Huh-1 cells; assay type: cell-based; conditions: ectopic NDRG3 (N66D) variant overexpressed, 24 hours, hypoxic condition (1% O2)
Description: as §5, §6

Compound: O=CC[C@@H](O)[C@H](O)[C@H](O)CO [2-deoxyglucose]
- expression of NDRG3 protein [1]: reduced

Compound: CC(=O)N(O)CCCCCNC(=O)CCC(=O)N(O)CCCCCNC(=O)CCC(=O)N(O)CCCCCN [DFX, desferrioxamine]
- expression of NDRG3 protein [2]: increasingly expressed
- expression of NDRG3 protein [3]: increasingly expressed

Compound: CC(C)C[C@@H](C=O)NC(=O)[C@H](CC(C)C)NC(=O)[C@H](CC(C)C)NC(=O)OCc1ccccc1 [MG132] (Cbz-Leu-Leu-Leu-aldehyde)
- ubiquitination of NDRG3 protein [4]: actively ubiquitinated

Compound: C[C@H](O)C(=O)O [lactate, L-lactate]
- ubiquitination of recombinant NDRG3 protein by PHD2/VHL complex [5]: reduced
- in vitro binding of recombinant NDRG3 protein to lactate (14C values) [6]: increased
- lactate-binding affinity of NDRG3 variant protein (14C values) [7]: reduced

Compound: NC(=O)C(=O)[O-].[Na+] [sodium oxamate]
- accumulation of NDRG3 protein [8]: inhibited in proportion to the lactate expression
- cell growth (MTT) (Huh-1 cells): inhibited in a concentration-dependent manner
- cell growth (MTT) [9]: increased
- accumulation of NDRG3 [10]: inhibited
- accumulation of NDRG3 variant [11]: lasted
- angiogenesis (tube formation) [12]: inhibited
- angiogenesis (tube formation) [13]: increased again
